Data published in US20100048545A1, “Compounds and Compositions for Use in the Prevention and Treatment of Disorders of Fat Metabolism and Obesity” (INNODIA INC., priority 2006, published 2010).

Key:
Format in all cases: in vivo
[1] = test system: ob/ob mouse; assay: Body weight gain and food consumption of ob/ob mice, 56 days; conditions: 100 mg/kg twice daily
Text: The objective of this study was to evaluate the effect of chronic administration of 4-hydroxyisoleucine (4-OH, compound 14a) on food consumption and body weight gain in a genetic model of obesity, the ob/ob mouse. Body weight gain and food consumption were monitored for 1 week prior to the commencement of treatment, and then for the 56 days of treatment.
A total of 16 animals were used in the study. The animals were distributed into 2 groups (1 treated, 1 control group, all on standard chow). Each group was composed of 8 animals. The mice were randomized according to body weight values.
For the eight weeks of treatment, the test agent was dissolved in reverse osmosis water. 4-hydroxyisoleucine was aliquoted and kept at 4° C. Control animals received reverse osmosis water twice daily (group 1). Mice from group 2 were treated twice daily with 4-OH at 100 mg/kg. All groups were treated by oral gavage. Treatment commenced on Day 0 and ended on Day 56 (FIGS. 21A and 21B). Food consumption was measured daily and averaged on a weekly basis beginning one week before the start of treatment as shown in FIG. 21B.

[2] = test system: Agouti mice; assay: Weight gain and food consumption in Agouti mice, 21 days; conditions: 50 or 100 mg/kg orally twice daily
Description: Agouti mice, which are obese, diabetic and leptin resistant, were treated orally twice daily with 50 or 100 mg/kg of 4-[…] for 21 consecutive days. Body weight and food consumption were measured daily.

[3] = test system: C57BL/6 mice fed a high fat diet; assay: Analogs and isomers of 4-hydroxyisoleucine on body weight gain in C57BL/6 mice fed a high fat diet, 3 days
Description: C57BL/6 mice were received at 6-7 weeks of age and fed a standard commercial chow for 1 week (acclimation period). The animals were randomized based on their body weight values, into control and treatment groups (n=6). Then, animals were shifted to a high fat diet (60% of calories from fat) and treated twice daily by oral gavage with 4-hydroxyisoleucine (4-OH, compound 14a) or different analogs and isomers of 4-OH at the dose of 100 mg per kg of body weight for 3 days. The control group (Control HFD) received vehicle (water) alone and a group was kept under standard chow (Control Lean). Body weight of the mice was recorded daily. Two different experiments were run and the effect on body weight gain of selected analogs and isomers according to the invention is presented in FIG. 30A (Experiment 1) and FIG. 30B (Experiment 2).

Q: With C[C@@H]([C@H](C)O)[C@H](N)C(=O)O [Compound 14a, (2S,3R,4S)-4-Hydroxyisoleucine] as the molecule, how does the food consumption [1] read?
A: slight decrease in food consumption during the first three weeks of treatment

Q: And the weight gain ([1]; Day 21 to Day 56, vs control group)?
A: significantly reduced

Q: And the weight gain ([1]; course of treatment)?
A: moderation of weight gain was observed

Q: And the tolerability of treatment ([1]; oral gavage, 56 days)?
A: well tolerated

Q: And the food intake [2]?
A: little effect on food intake

Q: What about the body weight gain ([2]; vs vehicle) of the same molecule?
A: significant decrease of body weight gain

Q: And the “body weight gain induced by the high fat diet” value ([3]; 100 mg/kg twice daily oral gavage)?
A: reduced body weight gain induced by the high fat diet

Q: And the “body weight compared to pre-treatment values” ([3]; 100 mg/kg twice daily, one experiment (FIG. 30B))?
A: reduced body weight of the mice as compared to pre-treatment values
